Reference: patent US11457631B2, “Antimicrobial compounds and methods of use” (AEQUOR, INC., priority 2016, dated 2022)

Assays:
Format in all cases: cell-based, Staphylococcus aureus
S. aureus ATCC 25923 [1] = experiment: Minimum Bactericidal Concentration (MBC), CLSI M26-A modified for 96 well plates; conditions: planktonic
Protocol: (§1) Antibacterial and antibiofilm assay were performed on human pathogens and industrial microorganisms associated with contamination: Staphylococcus aureus (ATCC 25923 and ATCC 12600), S. epidermidis (ATCC 12228 and ATCC 14990), Pseudomonas aeruginosa (ATCC 27853), E. coli (ATCC 25922), C. albicans ATCC 18804), oral flora bacteria Streptococcus mutans (ATCC 25175) and S. gordonii (ATCC 33399), and/or marine biofilm former Cobetia marina (ATCC 25374).
(§2) Antibacterial assays were performed on planktonic bacteria to determine the Minimum Inhibitory Concentrations (MICs) and Minimum Bactericidal Concentrations (MBCs) for the compounds. MICs are defined as the lowest concentration of an antimicrobial that will inhibit the visible growth of a microorganism after overnight incubation. The MICs were determined using the standard CLSI Method M07-A9 for Dilution Antimicrobial Susceptibility Tests for Bacteria That Grow Aerobically modified for 96 well plates. MBCs are the lowest concentration of antimicrobial that kill the organism. MBCs were determined using the standard CLSI Method M26-A for Determining Bactericidal Activity of Antimicrobial Agents modified for 96 well plates.
(§3) A selection of the compounds were used in the above assays against S. aureus (ATCC 25923).

S. aureus ATCC 25923 [2] = experiment: Minimum Biofilm Inhibition Concentration (MBIC), 96-well microplate static biofilm assay
Protocol: as §1
Antibiofilm assays were performed to determine the prevention and removal of biofilm. The 96-well microplate assay was used to determine the Minimum Biofilm Inhibition Concentration (MBIC) (Merritt, et al. 2005. Growing and analyzing static biofilms. Curr Protoc Microbiol. Chapter 1, Unit 1.)
The MBIC assay is defined as the lowest concentration of the compound that will inhibit the biofilm. The ASTM E2799-12 Standard Test Method for Testing Pseudomonas Biofilm using the Minimum Biofilm Eradicating Concentration (MBEC) assay was used to determine biofilm removal. The MBEC assay is defined as the lowest concentration of compound that will eradicate the biofilm. The qualitative MBEC is determined using a microplate reader at absorbance 630 nm and the quantitative MBEC is determined using log10 reduction.
as §3

S. aureus ATCC 25923 [3] = experiment: Minimum Inhibitory Concentration (MIC), CLSI M07-A9 modified for 96 well plates, planktonic bacteria; conditions: overnight incubation
Protocol: as §1, §2, §3

S. aureus ATCC 25923 [4] = experiment: Minimum Biofilm Eradicating Concentration (MBEC) assay, ASTM E2799-12; conditions: biofilm eradication
Protocol: Antibacterial and antibiofilm assay were performed on human pathogens and industrial microorganisms associated with contamination: Staphylococcus aureus (ATCC 25923 and ATCC 12600), S. epidermidis (ATCC 12228 and ATCC 14990), Pseudomonas aeruginosa (ATCC 27853), E. coli (ATCC 25922), C. albicans ATCC 18804), oral flora bacteria Streptococcus mutans (ATCC 25175) and S. gordonii (ATCC 33399), and/or marine biofilm former Cobetia marina (ATCC 25374). The MBIC assay is defined as the lowest concentration of the compound that will inhibit the biofilm. The ASTM […]-12 Standard Test Method for Testing Pseudomonas Biofilm using the Minimum Biofilm Eradicating Concentration (MBEC) assay was used to determine biofilm removal. The MBEC assay is defined as the lowest concentration of compound that will eradicate the biofilm. The qualitative MBEC is determined using a microplate reader at absorbance 630 nm and the quantitative MBEC is determined using log10 reduction. A selection of the compounds were used in the above assays against S. aureus (ATCC 25923).

CCCCNP(=O)(O)OC(C)=O [X is NH2; A is (CH2)3CH3, acetic (1-butyl phosphoramidic) anhydride]
0.25 % w/v: MBC (S. aureus ATCC 25923 [1]) | MBIC (S. aureus ATCC 25923 [2]) | MIC (S. aureus ATCC 25923 [3]) | MBEC (S. aureus ATCC 25923 [4])
